In patent US10294202B2, “Pyrrolidinones as herbicides” (FMC Corporation, priority 2013, dated 2019):

Tests used:
[1] = tested on: ryegrass, Italian; assay: Test A pre-/postemergence herbicide test; type: in vivo, Lolium multiflorum; settings: for Plant response rating, Ryegrass, Italian: 0 to 100 scale
How it was run: (§1)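 Formulated compound (non-phytotoxic solvent, surfactant) sprayed pre- onto soil of seeded loam/sand pots or post- onto seedlings at 1–2 leaves; ~10 d greenhouse; 0–100 visual control rating versus untreated.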

[2] = tested on: barnyardgrass; assay: Test C flooded paddy test; type: in vivo, Echinochloa crus-galli; settings: Flood, scale of 0 to 100 where 0 is no effect and 100 is complete control, 13 to 15 days
How it was run: (§2)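 Visual injury scored against controls after 13 to 15 days in the greenhouse, using 0 (no effect) to 100 (complete control). Test compounds went straight into paddy water held 3 cm above the soil surface on 2-leaf-stage plants, with that flood depth maintained for the whole test.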

[3] = tested on: barnyardgrass; assay: Test C pre-/postemergence herbicide test; type: in vivo, Echinochloa crus-galli; settings: for Barnyardgrass plant response rating: scale 0 to 100, 0 is no effect and 100 is complete control
How it was run: (§3)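 Compound solutions contained surfactant in a non-phytotoxic solvent. These were sprayed onto pots of loam/sand sown with seeds, and onto young plants (2 to 18 cm, 1- to 4-leaf) in sphagnum peat–vermiculite mix. Visual injury scores (0 none, 100 complete control) were recorded after 13 to 15 days.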

[4] = tested on: rice; assay: Test C flooded paddy test; type: in vivo, Oryza sativa; settings: Flood, scale of 0 to 100 where 0 is no effect and 100 is complete control, 13 to 15 days
How it was run: as §2

[5] = tested on: sedge, umbrella; assay: Test C flooded paddy test; type: in vivo, Cyperus difformis; settings: Flood, scale of 0 to 100 where 0 is no effect and 100 is complete control, 13 to 15 days
How it was run: as §2

[6] = tested on: ragweed; assay: Test A pre-/postemergence herbicide test; type: in vivo, Ambrosia elatior; settings: for Plant response rating, Ragweed: 0 to 100 scale
How it was run: as §1

[7] = tested on: lambsquarters; assay: Test C pre-/postemergence herbicide test; type: in vivo, Chenopodium album
How it was run: as §3

[8] = tested on: kochia; assay: Test A pre-/postemergence herbicide test; type: in vivo, Kochia scoparia; settings: for Plant response rating, Kochia: 0 to 100 scale
How it was run: as §1

[9] = 125 g ai/ha, visual rating, 0 no effect, 100 complete control, approximately 10 days, preemergence
[10] = Postemergence, 125 g ai/ha, 0 is no effect, 100 is complete control
[11] = preemergence, 500 g ai/ha, 0 is no effect and 100 is complete control
[12] = Postemergence, 31 g ai/ha, scale 0 to 100 (0 no effect, 100 complete control)
[13] = Postemergence, 62 g ai/ha, scale 0 (no effect) to 100 (complete control)
[14] = Postemergence, 125 g ai/ha, scale 0 to 100 (0 no effect, 100 complete control)
[15] = Postemergence, 250 g ai/ha, scale 0 to 100 (0 no effect, 100 complete control)
[16] = Preemergence, 62 g ai/ha, scale 0 to 100
[17] = Preemergence, 125 g ai/ha, scale 0 to 100 (0 no effect, 100 complete control)
[18] = Preemergence, 31 g ai/ha, scale 0 to 100, 0 is no effect and 100 is complete control
[19] = Preemergence, 62 g ai/ha, scale 0 to 100 (0 no effect, 100 complete control)

Compound | Plant response rating, Ryegrass, Italian [1, 9] | Plant response rating, Ryegrass, Italian [1, 10] | Ryegrass, Italian plant response rating (0 to 100 scale, 0 is no effect, 100 is complete control) ([1]; Postemergence, 500 g ai/ha) | Plant response rating, Ryegrass, Italian [1, 11] | Plant response rating, Barnyardgrass ([2]; 31 g ai/ha) | Plant response rating, Barnyardgrass ([2]; 62 g ai/ha) | Plant response rating, Barnyardgrass ([2]; 125 g ai/ha) | Plant response rating, Barnyardgrass ([2]; 250 g ai/ha) | Plant response rating, Barnyardgrass [3, 12] | Plant response rating, Barnyardgrass [3, 13] | Plant response rating, Barnyardgrass [3, 14] | Plant response rating, Barnyardgrass [3, 15] | Barnyardgrass plant response rating ([3]; Preemergence, 31 g ai/ha) | Plant response rating, Barnyardgrass [3, 16] | Plant response rating, Barnyardgrass [3, 17] | Plant response rating (scale of 0 to 100; 0 is no effect, 100 is complete control), Barnyardgrass ([3]; Preemergence, 250 g ai/ha) | Plant response rating, Rice ([4]; 31 g ai/ha) | Plant response rating, Rice ([4]; 62 g ai/ha) | Plant response rating, Rice ([4]; 125 g ai/ha) | Plant response rating, Rice ([4]; 250 g ai/ha) | also measured
O=C1NCC(c2cccc(OC(F)F)c2)C1C(=O)Nc1ccccc1F (centres unmarked) [Compound 223] | 30 | 0 | 40 | 60 | 0 | 0 | 0 | 0 | 0 | 0 | 45 | 60 | 65 | 85 | 90 | 95 | 0 | 0 | 0 | 0 | Plant response rating, Sedge, Umbrella ([5]; 31 g ai/ha): 0; Plant response rating, Sedge, Umbrella ([5]; 62 g ai/ha): 0; Plant response rating, Sedge, Umbrella ([5]; 125 g ai/ha): 0; Plant response rating, Sedge, Umbrella ([5]; 250 g ai/ha): 0; Plant response rating, Ragweed [6, 9]: 30; Plant response rating, Ragweed [6, 10]: 0; Ragweed plant response rating (0 to 100 scale, 0 is no effect, 100 is complete control) ([6]; Postemergence, 500 g ai/ha): 30; Plant response rating, Ragweed [6, 11]: 50; Plant response rating, Lambsquarters [7, 12]: 0; Plant response rating, Lambsquarters [7, 13]: 5; Plant response rating, Lambsquarters [7, 14]: 35; Plant response rating, Lambsquarters [7, 15]: 60; Lambsquarters plant response rating [7, 18]: 70; Lambsquarters plant response rating [7, 19]: 70; Plant response rating, Lambsquarters [7, 17]: 85; Plant response rating (scale of 0 to 100), Lambsquarters ([7]; Preemergence, 250 g ai/ha): 90; Plant response rating, Kochia [8, 9]: 30; Plant response rating, Kochia [8, 10]: 50; Kochia plant response rating (0 to 100 scale, 0 is no effect, 100 is complete control) ([8]; Postemergence, 500 g ai/ha): 70; Plant response rating, Kochia [8, 11]: 80
O=C1NCC(c2ccc(C(F)(F)F)cc2)C1C(=O)Nc1ccc(F)c(F)c1F (centres unmarked) [Compound 232] | 40 | 40 | 50 | 80 | 0 | 30 | 40 | 60 | 5 | 55 | 70 | 75 | 85 | 85 | 95 | 95 | 0 | 0 | 0 | 15 | Plant response rating, Sedge, Umbrella ([5]; 31 g ai/ha): 0; Plant response rating, Sedge, Umbrella ([5]; 62 g ai/ha): 0; Plant response rating, Sedge, Umbrella ([5]; 125 g ai/ha): 0; Plant response rating, Sedge, Umbrella ([5]; 250 g ai/ha): 0; Plant response rating, Ragweed [6, 9]: 30; Plant response rating, Ragweed [6, 10]: 20; Ragweed plant response rating (0 to 100 scale, 0 is no effect, 100 is complete control) ([6]; Postemergence, 500 g ai/ha): 50; Plant response rating, Ragweed [6, 11]: 90; Plant response rating, Lambsquarters [7, 12]: 80; Plant response rating, Lambsquarters [7, 13]: 85; Plant response rating, Lambsquarters [7, 14]: 85; Plant response rating, Lambsquarters [7, 15]: 85; Lambsquarters plant response rating [7, 18]: 75; Lambsquarters plant response rating [7, 19]: 85; Plant response rating, Lambsquarters [7, 17]: 90; Plant response rating (scale of 0 to 100), Lambsquarters ([7]; Preemergence, 250 g ai/ha): 90; Plant response rating, Kochia [8, 9]: 70; Plant response rating, Kochia [8, 10]: 80; Kochia plant response rating (0 to 100 scale, 0 is no effect, 100 is complete control) ([8]; Postemergence, 500 g ai/ha): 90; Plant response rating, Kochia [8, 11]: 80
